“And” between values parts separate entries of the source, which are not always exact repeats. Equal entries are not always repeated.
Assays:
Details in all cases: 48 h
CU-ACC1 [1] = experiment: AC50 viability; higher = less potent
Outline: (§1)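 In 1,536-well plates, 500–1,000 cells/well of three adrenocortical carcinoma cell lines in 5 µL medium received 23 nL of each library compound across 11 concentrations. At 48 h, CellTiter-Glo was incubated for 15 minutes at room temperature and luminescence measured. Per-plate normalisation used vehicle and empty-well controls, and only inhibitory or non-responding curve classes were kept when fitting concentration-response curves for AC50 and area under the curve.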

CU-ACC2 [2] = experiment: AC50 viability; higher = less potent
Outline: as §1

NCI-H295R [3] = experiment: AC50 viability; higher = less potent
Outline: as §1

CU-ACC1 [4] = experiment: area under concentration-response curve (viability) (AUC (a.u.)); higher = less active
Outline: as §1

CU-ACC2 [5] = experiment: as above
Outline: as §1

NCI-H295R [6] = experiment: as above
Outline: as §1

SMILES | AC50 viability (CU-ACC1 [1]) [µM] | AC50 viability (CU-ACC2 [2]) [µM] | AC50 viability (NCI-H295R [3]) [µM] | area under concentration-response curve (CU-ACC1 [4]) | area under concentration-response curve (CU-ACC2 [5]) | area under concentration-response curve (NCI-H295R [6])
O=C(/C=C\n1cnc(-c2cc(C(F)(F)F)cc(C(F)(F)F)c2)n1)NNc1ccccn1 | 2.35 | 1.32 | 10.5 | 273 | 245 | 271
CC(C)C1=N[N](C\2=C1C(=O)N\C(=N2)CC3=CC=C(OCCO)C=C3)C4=C(Cl)C=CC=C4Cl | 0.0332 | 0.0209 | 0.0833 | 241 | 183 | 289
C=C1C(=O)O[C@@H]2[C@H]3O[C@]3(C)CC/C=C(\C)CC[C@@H]12 | 14.8 | 7.42 | 9.34 | 375 | 522 | 497
CC(C)NC(=O)COc1cccc(-c2nc(Nc3ccc4[nH]ncc4c3)c3ccccc3n2)c1 | 13.2 | 3.72 | 9.34 | 481 | 507 | 523
COCCN1CCN(Cc2ccc(-c3n[nH]c4c3C(=O)c3c(NC(=O)NN5CCOCC5)cccc3-4)cc2)CC1 | 0.468 | 0.148 | 0.833 | 301 | 295 | 372
CC(C)N1N/C(=C2\C=c3cc(O)ccc3=N2)c2c(N)ncnc21 | 1.66 | 2.63 | 2.09 | 401 | 520 | 472
CCN1CCN(Cc2ccc(Nc3ncc(F)c(-c4cc(F)c5nc(C)n(C(C)C)c5c4)n3)nc2)CC1 | 18.6 | 8.33 | 18.6 | 463 | 362 | 480
O=C1NCCc2[nH]c(-c3ccncc3)cc21 | 3.32 | 1.86 | 4.68 | 338 | 406 | 423
O=C(/C=C/C#Cc1cccc(N[S+](=O)([O-])c2ccccc2)c1)NO | 4.07 | 6.45 | 4.56 | 497 | 544 | 542
COC(=O)N[C@H](C(=O)N1CCC[C@H]1c1ncc(-c2ccc(-c3ccc(-c4cnc([C@@H]5CCCN5C(=O)[C@@H](NC(=O)OC)C(C)C)[nH]4)cc3)cc2)[nH]1)C(C)C | 18.6 | 23.5 | 23.5 | 506 | 561 | 508
COc1ccc([S+](=O)([O-])N(CCO)c2ccccc2CN(C)C/C=C/c2ccc(Cl)cc2)cc1 | 14.8 | 23.5 | 20.9 | 436 | 539 | 425
O=C(/C=C/c1ccc2ccc(C(F)(F)F)cc2n1)c1ccncc1 | 3.72 | 2.95 | 3.72 | 365 | 439 | 402
COc1cc(C(=O)N2CCC(N3CCN(C)CC3)CC2)ccc1Nc1ncc2c(n1)N(C)c1ccccc1C(=O)N2C | 26.3 | 20.9 | 16.6 | 377 | 423 | 389
C=C1CCC2[C@](C)(CO)C(O)CC[C@]2(C)C1C/C=C1/C(=O)OCC1O (stereo not given in full) | 18.6 | 11.8 | 20.9 | 472 | 504 | 445
COCCn1c2c([n+](Cc3cnccn3)c1C)C(=O)c1ccccc1C2=O | 1.66 | 0.132 | 3.32 | 246 | 278 | 341
C[C@H](NC(=O)C(=O)Nc1ccccc1C(C)(C)C)C(=O)N[C@@H](CC(=O)O)C(=O)COc1c(F)c(F)cc(F)c1F | 1.66 | 0.661 | 1.05 | 328 | 235 | 203
CC(C)[C@]12O[C@H]1[C@@H]3O[C@@]34[C@@]5(C)CC\C6=C(COC6=O)/[C@@H]5C[C@@H]7O[C@]47C2=O | 0.0417 | 0.0525 | 0.833 | 245 | 270 | 329
Cc1nc(Nc2ncc(C(=O)Nc3c(C)cccc3Cl)s2)cc(N2CCN(CCO)CC2)n1 | 29.5 | 23.5 | 23.5 | 448 | 461 | 446
NCCCC[C@H](NC(=O)[C@@H](NC(=O)[C@H](Cc1c[nH]c2ccccc12)NC(=O)[C@H](CCCCN)NC(=O)[C@H](CCCCN)NC(=O)[C@H](Cc1c[nH]c2ccccc12)NC(=O)[C@H](Cc1c[nH]c2ccccc12)NC(=O)[C@H](CCCCN)NC(=O)[C@@H](N)CCCCN)C(c1ccccc1)c1ccccc1)C(N)=O | 10.5 | 3.72 | 9.34 | 301 | 301 | 310
COc1cc(N2CCC(N(C)C)CC2)ccc1Nc1ncc(Cl)c(Nc2ccccc2P(C)(C)=O)n1 | 7.42 | 5.25 | 3.72 | 424 | 419 | 426
CCC(=O)N1CCN(CC1)C2=C(C=C(C=C2)N3C(=O)\C=C/C4=C3C5=CC(=CC=C5N=C4)C6=CN=C7C=CC=CC7=C6)C(F)(F)F | 0.0102 | 0.0456 | 0.129 | 305 | 362 | 326
Nc1cc(C(F)(F)F)c(-c2cc(N3CCOCC3)nc(N3CCOCC3)n2)cn1 | 9.34 | 4.68 | 2.63 | 400 | 539 | 449
CC(=O)NCC(=O)N1[C@@H]2CC[C@H]1c1ccc(Nc3ncc(C(F)(F)F)c(NC4CCC4)n3)cc12 | 18.6 | 10.5 | 16.6 | 502 | 443 | 459
Cc1ccc([S+](=O)([O-])Nc2cc(Cl)ccc2C(=O)Nc2nc(-c3ccccc3)cs2)cc1 | 9.34 | 0.263 | 2.63 | 362 | 306 | 340
CC1=NN=C(C[C@@H]2\C=C(C3=CC=C(Cl)C=C3)/C4=CC=CC=C4[N]5C(=NN=C25)C)O1 | 5.9 | 3.32 | 5.25 | 433 | 447 | 368
COc1nc(OCc2cccc(-c3ccccc3)c2C)ccc1CNCCNC(C)=O | 11.8 | 16.6 | 5.9 | 390 | 379 | 412
COC1=C(OC)C=C\2C(=C1)C(=O)N(CCCNCCO)\C3=C2C(=O)C4=C3C=C5OCOC5=C4 | 5.9 | 4.17 | 7.42 | 364 | 396 | 407

SMILES | AC50 viability (CU-ACC1 [1]) [µM] | AC50 viability (CU-ACC2 [2]) [µM] | AC50 viability (NCI-H295R [3]) [µM] | area under concentration-response curve (CU-ACC1 [4]) | area under concentration-response curve (CU-ACC2 [5]) | area under concentration-response curve (NCI-H295R [6])
CCCCCCCOc1ccc(CCC(N)(CO)CO)cc1C(F)(F)F | 14.8 | 16.6 | 9.34 | 446 | 553 | 466
O[C@H]1CC[C@@H](Oc2cccc3cnc(Nc4ccc5nc[nH]c5c4)nc23)CC1 | 1.66 | 1.32 | 2.63 | 403 | 331 | 409
CC(C)C1NC(=O)C(NC(=O)C2=C3\N=C\4/C(=C(C)\C(=O)\C(=C4C(=O)NC5C(C)OC(=O)C(C(C)C)N(C)C(=O)CN(C)C(=O)C6CCCN6C(=O)C(NC5=O)C(C)C)N)OC3=C(C)C=C2)C(C)OC(=O)C(C(C)C)N(C)C(=O)CN(C)C(=O)C7CCCN7C1=O (stereo not given) | 0.0512 | 0.00812 | 0.144 | 230 | 152 | 307
O=C1[C@H](Cc2ccc(O)cc2)N2C(=O)CCN(C(=O)NCc3ccccc3)[C@H]2CN1Cc1cccc2ccccc12 | 11.8 | 4.68 | – | 531 | 554 | 496
CC[C@@]1(O)C(=O)OCC/2=C1/C=C3\N(CC4=CC5=CC(=CC=C5N=C34)O)C2=O | 2.09 | 0.742 | – | 271 | 436 | 518
CC[C@@]1(O)C(=O)OCc2c1cc1n(c2=O)Cc2cc3c(CN(C)C)c(O)ccc3nc2-1.Cl | 16.6 | 16.6 | – | 428 | 483 | 488
COC1=CC=C(C=C1)C/2=C/OC3=C(C(=CC(=C3)O)O)C2=O | 0.0661 | 0.295 | – | 267 | 164 | 208
Cc1c(NC(=O)c2cc(C(N)=O)nc3cc(F)ccc23)c(C(F)(F)F)nn1Cc1ccc(C#N)cc1 | 1.66 | 10.5 | – | 460 | 443 | 462
C[C@]12Cc3cn[nH]c3C[C@@H]1CC[C@@H]1[C@@H]2CC[C@@]2(C)[C@H]1CC[C@]2(C)O | 0.0132 | 0.263 | – | 335 | 214 | 312
c1cc(N[C@@H]2CCNC2)nc(-c2cnc3ccc(-c4cn[nH]c4)cn23)c1 | 0.00662 | 41.7 | – | 331 | 380 | 409
CN1\N=C(N)/C2=C[N]([C@@H]3O[C@H](CO[P](O)(O)=O)[C@@H](O)[C@H]3O)C4=C2C1=NC=N4 | 11.8 | 4.68 | – | 429 | 464 | 493
CN(C)C1CCN(C(=O)c2ccc(NC(=O)Nc3nc(N4CCOCC4)nc(N4CCOCC4)n3)cc2)CC1 | 3.32 | 1.86 | – | 393 | 458 | 464
NCCCCNCCCN | 16.6 | 33.2 | – | 312 | 422 | 107
CN(C)C1CCN(C(=O)c2ccc(NC(=O)Nc3ccc(-c4nc(N5CCOCC5)nc(N5CCOCC5)n4)cc3)cc2)CC1 | 2.35 | 4.17 | – | 411 | 345 | 485
CC(=O)Nc1ccc(C(=O)NC(C)(C)C)cc1 | 5.25 | 0.295 | – | 331 | 247 | 284
Cc1c[nH]c2ncnc(N3CCC(CN)(C(=O)Nc4cccc(OC(=O)N(C)C)c4)CC3)c12 | 10.5 | 18.6 | – | 427 and 309 | 512 | 518 and 295
COc1ncc(Nc2ncc(C(C)N3CCN([S+](C)(=O)[O-])CC3)cc2-c2nc(C)nc(N)n2)cc1F (stereo not given) | 0.00263 | 0.0934 | – | 226 | 258 | 179
O=C(N[C@@H](c1ccccc1)[C@@H]1CCCCN1)c1cccc(C(F)(F)F)c1Cl | 10.5 | 33.2 | – | 371 | 454 | 212
CN[C@@H]1CN(C[C@H]1OC)C2=NC3=C(C=C2)C(=O)C(=C\N3C4=NC=CS4)/C(O)=O | 10.2 | 4.56 | – | 475 | 474 | 445
CCCNC(=O)[C@H]1O[C@@H]1C(=O)N[C@H](C(=O)N1CCC[C@H]1C(=O)OC)C(C)CC (stereo not given in full) | 16.6 | 18.6 | – | 449 | 504 | 494
CN1\C=N/C2=CC=C(NC3=CC(=CC=C3C)NC(=O)C4=CC(=CC=C4)C(C)(C)C#N)C=C2C1=O | 0.0934 | 8.33 | – | 445 | 499 | 518
O=C(CCCCCCC(=O)Nc1ccc([C@H]2O[C@@H](CSc3nc(-c4ccccc4)c(-c4ccccc4)o3)C[C@@H](c3ccc(CO)cc3)O2)cc1)NO | 2.7 | 3.4 | – | 488 | 573 | 492
CC1=C(/C=C/C(C)=C/C=C/C(C)=C/C(=O)Nc2ccc(O)cc2)C(C)(C)CCC1 | 0.235 | 0.295 | – | 232 | 170 | 179
CCC(=C/[C@H](C)C/C=C/C(C)=C/[C@@H](C)C(=O)[C@@H](C)[C@H](O)[C@@H](C)C/C(C)=C/C(=O)O)/C=C/[C@@H]1OC(=O)C=C[C@@H]1C | 0.00105 | 13.2 | – | 230 | 344 | 333
CN1C(=O)/C(=C(NC2=CC=C(I)C=C2F)\C3=C1\N=C/N(C[C@@H](O)CO)C3=O)F | 8.33 | 11.8 | – | 431 | 497 | 534
Cn1c(CCCCCCC(=O)NO)nc2cc(N(CCCl)CCCl)ccc21 | 10.5 | 5.9 | – | 439 | 479 | 497
